Earlier results, collected in PMC10010643 (Cancer Chemotherapy and Pharmacology, 2023).

System: panel of different targets including enzymes, receptors, and ion channels
Design: method as in PMID 36154172
Conditions: cited from earlier work

Compound: OC[C@H]1O[C@H](Sc2cncc(Br)c2)[C@H](O)[C@@H](n2cc(-c3cc(F)c(F)c(F)c3)nn2)[C@H]1O [GB1211]
- Safety profile against a panel of different targets: favorable safety profile
